Results taken from patent US10766928B2, “Targeted conformationally-constrained kinked endosomal disrupting peptides” (priority 2012, dated 2020).
Values after ≈ are worked out from the molar mass of the structure shown. Where two headings read alike, the source gives them in different places. Non-standard residues stand in square brackets, D forms with d. Residues, ends and D or L forms follow the SMILES beside them. *: point of attachment. Pentanoyl(5-NH-cholesteryl) = CC(C)CCC[C@@H](C)[C@H]1CC[C@H]2[C@@H]3CC=C4C[C@@H](NCCCCC(=O)*)CC[C@]4(C)[C@H]3CC[C@]12C; Cholesteryloxycarbonyl = CC(C)CCC[C@@H](C)[C@H]1CC[C@H]2[C@@H]3CC=C4C[C@@H](OC(=O)*)CC[C@]4(C)[C@H]3CC[C@]12C; PEG3 = NCCOCCOCCOCCC(=O)O; Aib = CC(C)(N)C(=O)O; Ahx = NCCCCCC(=O)O; βAla = NCCC(=O)O

Legend:
[1] = test system: endosomes of Jurkat lymphocytes; assay: Endosome disruption in Jurkat lymphocytes: release of carboxyfluorescein from disulfide probe Compound 2, flow cytometry; conditions: for Efficacy (% of max. 1): % change in cellular fluorescence relative to maximal response of Compound 1 (100%); for Efficacy (% of max. 1) / Efficacy (% of 1): Jurkat; for Efficacy (% of 1): % of the effect of compound 1, calculated span of dose-response curve, ± standard deviation
Experimental: The effects of the compounds of the invention on human Juikat leukemia cells were evaluated using flow cytometry-based assays of potency, efficacy, and toxicity. […] Analysis of flow cytometry data by non-linear regression was used to determine IC50 values for potency with the efficacy expressed as a percentage. […] Dose-dependent effects on cellular viability after 48 h at 37° C. in culture were also measured by flow cytometry.
The # represents the compound number in accordance with Tables A, B, and C. Concentrations of compound stock solutions were determined by absorbance measurements at 280 nm. Efficacy was determined as % change in cellular fluorescence relative to the maximal response of Compound 1, defined as 100%. Potencies and efficacies in Jurkat lymphocytes were measured by flow cytometry after treatment of cells with the compounds listed and the fluorescent probe Compound 2 (2.5 μM) for 14 hours. Toxicity to this cell line was determined by flow cytometry analysis of light scattering and counterstaining with PI after treatment for 48 h at 37° C. in culture. […] N.D., not determined.
Cells were treated with fluorescent molecular probe Compound 2 (2.5 μM) and endosome disruptors for 14 hours at 37° C. Enhanced cellular fluorescence resulting from release of the pH-sensitive fluorophore Compound 3 into the cytoplasm was quantified by flow cytometry.
Natural amino acids are represented by single letter codes. Codes for non-standard elements are as follows: Ch1: (3β-Cholest-5-en-3-yl-ammonio)pentanoyl; Ch2: (Cholester-3-yl)oxy-βAla-βAla; X: ε-Ahx; U: Aib; PB: Pacific Blue fluorophore. O: 3-(2-(2-(2-aminoethoxy)ethoxy)ethoxy)propanyl.

[2] = Thermodynamic solubility in PBS (pH 7.4); format: physicochemical; conditions: phosphate buffered saline
Description: Values in parentheses represent 95% confidence intervals. N.D., not determined.
Measurements represent duplicate or more replicates, with active peptides subjected to multiple replicates. ND: not determined. The peptide was non-toxic and soluble in cell culture medium at this concentration.

[3] = pH 7.4, Table 3, PBS pH 7.4, 24 h at 22° C., read-out: Solubility
[4] = read-out: Potency, Table 2, EC50 ± standard deviation, Jurkat lymphocytes, disulfide-linked fluorescent probe (2.5 μM), 14 h

Row | Compound | EC50 ([1]; 14 h) [µM] | Efficacy (% of max. 1) ([1]; Table 1, 14 hours) | Efficacy (% of 1) ([1]; Table 2, 14 h) [%] | solubility thermodynamic at 24 h [2, 3] [µM] | EC50 [1, 4] [µM] | also measured
1 | CC(C)CCC[C@@H](C)[C@H]1CC[C@H]2[C@@H]3CC=C4C[C@@H](NCCCCC(=O)NCCC(=O)N[C@@H](CCC(=O)O)C(=O)N[C@@H](CCC(=O)O)C(=O)NCCCCCC(=O)NCCCCCC(=O)NC(C)(C)C(=O)NC(C)(C)C(=O)NC(C)(C)C(=O)NC(C)(C)C(=O)N[C@@H](Cc5ccccc5)C(=O)N[C@@H](Cc5ccccc5)C(=O)N[C@@H](C)C(=O)N[C@@H](Cc5ccccc5)C(=O)N[C@@H](Cc5ccccc5)C(=O)N5CCC[C@H]5C(=O)N5CCC[C@H]5C(=O)N[C@H](C(=O)N[C@@H](C)C(N)=O)C(C)C)CC[C@]4(C)[C@H]3CC[C@]12C [Compound 22, R = BEEXXUUUUFFAFFPPVA-CONH2] ({Pentanoyl(5-NH-cholesteryl)-βAla}-EE[Ahx][Ahx][Aib][Aib][Aib][Aib]FFAFFPPVA-NH2) | > 10 |  |  |  |  | 
2 | Ac-SSAWWSYWPPVA-NH2 [Compound 39, reference compound] |  | <<50% | <2 | 137 ± 8 |  | Endosome disruption activity (in words) ([1]; Jurkat endosome disruption assay): devoid of biological activity; solubility thermodynamic at 24 h ([2]; pH 7.4, Table 1, PBS pH 7.4, 24 hours at 22° C., ±S.D., read-out: Solubility (aq.)): 173 ± 11 µM
3 | CC(C)CCC[C@@H](C)[C@H]1CC[C@H]2[C@@H]3CC=C4C[C@@H](NCCCCC(=O)NCCC(=O)N[C@@H](CCC(=O)O)C(=O)N[C@@H](CCC(=O)O)C(=O)NCCCCCC(=O)NC(C)(C)C(=O)NC(C)(C)C(=O)NC(C)(C)C(=O)N[C@@H](Cc5c[nH]c6ccccc56)C(=O)N[C@@H](Cc5c[nH]c6ccccc56)C(=O)N[C@@H](C)C(=O)N[C@@H](C)C(=O)N[C@@H](Cc5c[nH]c6ccccc56)C(=O)N5CCC[C@H]5C(=O)N5CCC[C@H]5C(=O)N[C@H](C(=O)N[C@@H](C)C(N)=O)C(C)C)CC[C@]4(C)[C@H]3CC[C@]12C [Compound 14, R = BEEXUUUWWAAWPPVA-CONH2] ({Pentanoyl(5-NH-cholesteryl)-βAla}-EE[Ahx][Aib][Aib][Aib]WWAAWPPVA-NH2) | 1.2 |  |  |  |  | 
4 | CC(C)[C@H](NC(=O)[C@@H](NC(=O)[C@@H]1CCCN1C(=O)[C@@H]1CCCN1C(=O)[C@H](Cc1c[nH]c2ccccc12)NC(=O)[C@H](C)NC(=O)[C@H](C)NC(=O)[C@H](Cc1c[nH]c2ccccc12)NC(=O)[C@H](Cc1c[nH]c2ccccc12)NC(=O)C(C)(C)NC(=O)C(C)(C)NC(=O)C(C)(C)NC(=O)C(C)(C)N)C(C)C)C(N)=O [Compound 47] (H-[Aib][Aib][Aib][Aib]WWAAWPPVV-NH2) |  | <<50% |  | 63 ± 3 (≈ 91.4 µg/mL) | > 15 | 
5 | CC(C)[C@H](NC(=O)[C@@H]1CCCN1C(=O)[C@@H]1CCCN1C(=O)[C@H](Cc1c[nH]c2ccccc12)NC(=O)[C@H](Cc1ccc(O)cc1)NC(=O)[C@H](C)NC(=O)[C@H](Cc1c[nH]c2ccccc12)NC(=O)[C@H](Cc1c[nH]c2ccccc12)NC(=O)C(C)(C)NC(=O)C(C)(C)NC(=O)C(C)(C)NC(=O)C(C)(C)N)C(=O)N[C@@H](C)C(N)=O [Compound 43] (H-[Aib][Aib][Aib][Aib]WWAYWPPVA-NH2) |  | 64% | 57 ± 7 | 40 ± 2 (≈ 60.6 µg/mL) | 9 ± 3 | EC50 ([1]; read-out: Potency (EC50), Table 1, Jurkat lymphocytes, probe Compound 2 (2.5 μM), 14 hours, 95% confidence interval in neighbouring cell): 10 µM
6 | CC(C)[C@H](NC(=O)[C@@H](NC(=O)[C@@H]1CCCN1C(=O)[C@@H]1CCCN1C(=O)[C@H](Cc1c[nH]c2ccccc12)NC(=O)[C@H](Cc1ccc(O)cc1)NC(=O)[C@H](C)NC(=O)[C@H](Cc1c[nH]c2ccccc12)NC(=O)[C@H](C)NC(=O)C(C)(C)NC(=O)C(C)(C)NC(=O)C(C)(C)NC(=O)C(C)(C)N)C(C)C)C(N)=O [Compound 45] (H-[Aib][Aib][Aib][Aib]AWAYWPPVV-NH2) |  | <<50% | <10 | 86 ± 5 (≈ 123 µg/mL) |  | 
7 | CC(C)[C@H](NC(=O)[C@@H](NC(=O)[C@@H]1CCCN1C(=O)[C@@H]1CCCN1C(=O)[C@H](Cc1ccc(O)cc1)NC(=O)[C@H](Cc1ccc(O)cc1)NC(=O)[C@H](C)NC(=O)[C@H](Cc1ccc(O)cc1)NC(=O)[C@H](Cc1ccc(O)cc1)NC(=O)[C@H](C)NC(=O)[C@H](Cc1ccc(O)cc1)NC(=O)[C@H](Cc1ccc(O)cc1)NC(=O)C(C)(C)NC(=O)C(C)(C)NC(=O)C(C)(C)NC(=O)C(C)(C)N)C(C)C)C(N)=O [Compound 85] (H-[Aib][Aib][Aib][Aib]YYAYYAYYPPVV-NH2) |  |  | >125 |  | 4 ± 1 | 
8 | CC(C)[C@H](NC(=O)[C@@H](NC(=O)[C@@H]1CCCN1C(=O)[C@@H]1CCCN1C(=O)[C@H](Cc1c[nH]c2ccccc12)NC(=O)[C@H](Cc1ccc(O)cc1)NC(=O)[C@H](C)NC(=O)[C@H](C)NC(=O)[C@H](Cc1c[nH]c2ccccc12)NC(=O)C(C)(C)NC(=O)C(C)(C)NC(=O)C(C)(C)NC(=O)C(C)(C)N)C(C)C)C(N)=O [Compound 46] (H-[Aib][Aib][Aib][Aib]WAAYWPPVV-NH2) |  | <<50% | <10 | 86 ± 5 (≈ 123 µg/mL) |  | 
9 | CC(C)CCC[C@@H](C)[C@H]1CC[C@H]2[C@@H]3CC=C4C[C@@H](NCCCCC(=O)NCCC(=O)N[C@@H](CCC(=O)O)C(=O)N[C@@H](CCC(=O)O)C(=O)NCCCCCC(=O)NC(C)(C)C(=O)NC(C)(C)C(=O)NC(C)(C)C(=O)N[C@@H](Cc5c[nH]c6ccccc56)C(=O)N[C@@H](Cc5c[nH]c6ccccc56)C(=O)N[C@@H](C)C(=O)N[C@@H](Cc5ccc(O)cc5)C(=O)N[C@@H](Cc5c[nH]c6ccccc56)C(=O)N[C@@H](C)C(=O)N5CCC[C@H]5C(=O)N[C@H](C(=O)N[C@@H](C)C(N)=O)C(C)C)CC[C@]4(C)[C@H]3CC[C@]12C [Compound 16, R = BEEXUUUWWAYWAPVA-CONH2] ({Pentanoyl(5-NH-cholesteryl)-βAla}-EE[Ahx][Aib][Aib][Aib]WWAYWAPVA-NH2) | 1.6 |  |  |  |  | 
10 | CC(C)CCC[C@@H](C)[C@H]1CC[C@H]2[C@@H]3CC=C4C[C@@H](NCCCCC(=O)NCCC(=O)N[C@@H](CCC(=O)O)C(=O)N[C@@H](CCC(=O)O)C(=O)NCCCCCC(=O)NC(C)(C)C(=O)NC(C)(C)C(=O)NC(C)(C)C(=O)N[C@@H](Cc5c[nH]c6ccccc56)C(=O)N[C@@H](Cc5c[nH]c6ccccc56)C(=O)N[C@@H](C)C(=O)N[C@@H](Cc5ccc(O)cc5)C(=O)N[C@@H](Cc5c[nH]c6ccccc56)C(=O)N5CCC[C@H]5C(=O)N[C@@H](C)C(=O)N[C@H](C(=O)N[C@@H](C)C(N)=O)C(C)C)CC[C@]4(C)[C@H]3CC[C@]12C [Compound 17, R = BEEXUUUWWAYWPAVA-CONH2] ({Pentanoyl(5-NH-cholesteryl)-βAla}-EE[Ahx][Aib][Aib][Aib]WWAYWPAVA-NH2) | 2.1 |  |  |  |  | 
11 | CC(C)CCC[C@@H](C)[C@H]1CC[C@H]2[C@@H]3CC=C4C[C@@H](NCCCCC(=O)NCCC(=O)N[C@@H](CCC(=O)O)C(=O)N[C@@H](CCC(=O)O)C(=O)NCCCCCC(=O)N[C@@H](CO)C(=O)N[C@@H](CO)C(=O)N[C@@H](C)C(=O)N[C@@H](Cc5c[nH]c6ccccc56)C(=O)N[C@@H](Cc5c[nH]c6ccccc56)C(=O)N[C@@H](CO)C(=O)N[C@@H](Cc5ccc(O)cc5)C(=O)N[C@@H](Cc5c[nH]c6ccccc56)C(=O)N5CCC[C@H]5C(=O)N5CCC[C@H]5C(=O)N[C@H](C(=O)N[C@@H](C)C(N)=O)C(C)C)CC[C@]4(C)[C@H]3CC[C@]12C [Compound 6, R = BEEXSSAWWSYWPPVA-CONH2] ({Pentanoyl(5-NH-cholesteryl)-βAla}-EE[Ahx]SSAWWSYWPPVA-NH2) | 3.5 |  |  |  |  | 
12 | Ch1-EEOOUUUUYYYYPPVV-NH2 [Compound 86] |  |  | 125 ± 10 |  | 0.08 ± 0.01 | 
13 | CC(C)CCC[C@@H](C)[C@H]1CC[C@H]2[C@@H]3CC=C4C[C@@H](OC(=O)NCCC(=O)NCCC(=O)N[C@@H](CCC(=O)O)C(=O)N[C@@H](CCC(=O)O)C(=O)NCCOCCOCCOCCC(=O)NCCOCCOCCOCCC(=O)NC(C)(C)C(=O)NC(C)(C)C(=O)NC(C)(C)C(=O)NC(C)(C)C(=O)N[C@@H](Cc5c[nH]c6ccccc56)C(=O)N[C@@H](Cc5ccc(O)cc5)C(=O)N[C@@H](C)C(=O)N[C@@H](Cc5c[nH]c6ccccc56)C(=O)N[C@@H](Cc5ccc(O)cc5)C(=O)N[C@@H](C)C(=O)N[C@@H](Cc5c[nH]c6ccccc56)C(=O)N[C@@H](Cc5ccc(O)cc5)C(=O)N5CCC[C@H]5C(=O)N5CCC[C@H]5C(=O)N[C@H](C(=O)N[C@H](C(N)=O)C(C)C)C(C)C)CC[C@]4(C)[C@H]3CC[C@]12C [Compound 84, Ch2-EEOOUUUUWYAWYAWYPPVV-NH2] ({Cholesteryloxycarbonyl-βAla-βAla}-EE[PEG3][PEG3][Aib][Aib][Aib][Aib]WYAWYAWYPPVV-NH2) |  |  |  | 21 ± 1 (≈ 66.4 µg/mL) |  | 
